{"source": "patent US4115585A", "about": "“Esters of 1-(p-hydroxyphenyl)-2-(1'-methyl-2'-phenoxyethylamino)-1-propanol” (Instituto Luso Farmaco d'Italia S.r.l., priority 1976, dated 1978)", "key": {"[1]": {"assay": "Hypotensive activity (variation in pressure 1 to 2 days after insertion of a catheter in the abdominal artery, technique of Weeks and Jones)", "type": "in vivo"}, "in vivo": {"assay": "in vivo", "settings": "rat, po", "description": "According to the invention, esters I may be prepared by the esterification of the phenolic function of 1-(p-hydroxyphenyl)-2-(1'-methyl-2'-phenoxyethylamino)-1-propanol (II) with reactive derivatives like chlorides, bromides, and anhydrides of aliphatic acids of general formula III: [drawing 3] in which R1, R2, and R3 are as reported above. The esterification may be performed in an apolar solvent at reflux (such as benzene, toluene, or an analogous aromatic hydrocarbon) in the presence of an organic base like triethylamine, or in pyridine at room temperature."}}}
{"smiles": "CC(COc1ccccc1)NC(C)C(O)c1ccc(O)cc1", "note": "(stereo not shown) [Isoxysuprine, 1-(p-hydroxyphenyl)-2-(1'-methyl-2'-phenoxyethylamino)-1-propanol]", "values": [{"measurement": "Hypotensive Activity Recovery to 50%", "setting": "[1]; dose 5 mg/Kg os", "result": "8.0 ± 3.0", "unit": "min"}, {"measurement": "Hypotensive Activity Recovery to 75%", "setting": "[1]; dose 5 mg/Kg os", "result": "18.5 ± 6.5", "unit": "min"}, {"measurement": "Hypotensive Activity maximal pressure decrease", "setting": "[1]; dose 5 mg/Kg os", "result": "24.5±11.5", "unit": "mm Hg"}, {"measurement": "Hypotensive Activity Recovery to 50%", "setting": "[1]; dose 10 mg/Kg os", "result": "79.8 ± 32.6", "unit": "min"}, {"measurement": "Hypotensive Activity Recovery to 75%", "setting": "[1]; dose 10 mg/Kg os", "result": "105.0 ± 42.9", "unit": "min"}, {"measurement": "Hypotensive Activity maximal pressure decrease", "setting": "[1]; dose 10 mg/Kg os", "result": "25.3±3.6", "unit": "mm Hg"}, {"measurement": "Hypotensive Activity Recovery to 50%", "setting": "[1]; dose 20 mg/Kg os", "result": "46.4 ± 13.8", "unit": "min"}, {"measurement": "Hypotensive Activity Recovery to 75%", "setting": "[1]; dose 20 mg/Kg os", "result": "110.4 ± 29.4", "unit": "min"}, {"measurement": "Hypotensive Activity maximal pressure decrease", "setting": "[1]; dose 20 mg/Kg os", "result": "28.7±4.9", "unit": "mm Hg"}, {"measurement": "Hypotensive Activity Recovery to 50%", "setting": "[1]; dose 40 mg/Kg os", "result": "34.0 ± 12.8", "unit": "min"}, {"measurement": "Hypotensive Activity Recovery to 75%", "setting": "[1]; dose 40 mg/Kg os", "result": "197.5 ± 59.5", "unit": "min"}, {"measurement": "Hypotensive Activity maximal pressure decrease", "setting": "[1]; dose 40 mg/Kg os", "result": "21.8±2.1", "unit": "mm Hg"}]}
{"smiles": "CC(COc1ccccc1)NC(C)C(O)c1ccc(OC(=O)C(C)(C)C)cc1", "note": "(stereo not drawn) [LR 693, 1-(p-α,α-dimethylpropionyloxyphenyl)-2-(1'-methyl-2'-phenoxyethylamino)-1-propanol]", "values": [{"measurement": "Hypotensive Activity Recovery to 50%", "setting": "[1]; dose 20 mg/Kg os", "result": "29.0 ± 1.0", "unit": "min"}, {"measurement": "Hypotensive Activity Recovery to 75%", "setting": "[1]; dose 20 mg/Kg os", "result": "60.0 ± 20.0", "unit": "min"}, {"measurement": "Hypotensive Activity maximal pressure decrease", "setting": "[1]; dose 20 mg/Kg os", "result": "9.0±1.0", "unit": "mm Hg"}, {"measurement": "Hypotensive Activity Recovery to 50%", "setting": "[1]; dose 40 mg/Kg os", "result": "115.7 ± 21.9", "unit": "min"}, {"measurement": "Hypotensive Activity Recovery to 75%", "setting": "[1]; dose 40 mg/Kg os", "result": "311.7 ± 34.2", "unit": "min"}, {"measurement": "Hypotensive Activity maximal pressure decrease", "setting": "[1]; dose 40 mg/Kg os", "result": "21.3±4.1", "unit": "mm Hg"}, {"measurement": "Hypotensive Activity Recovery to 50%", "setting": "[1]; dose 80 mg/Kg os", "result": "180.2 ± 40.7", "unit": "min"}, {"measurement": "Hypotensive Activity Recovery to 75%", "setting": "[1]; dose 80 mg/Kg os", "result": "384.8 ± 71.0", "unit": "min"}, {"measurement": "Hypotensive Activity maximal pressure decrease", "setting": "[1]; dose 80 mg/Kg os", "result": "18.8±8.0", "unit": "mm Hg"}, {"measurement": "LD50", "setting": "in vivo", "result": "> 5000", "unit": "mg/kg"}]}
